In PubChem BioAssay AID1259407 (Chemical Carcinogenesis Research Information System (CCRIS), 2018):
Activity calls are given as the source filed them. The rule behind the calls is not given here.

Tested on: CCRIS mutagenicity, Ames/micronucleus/aberration tests
Assay: CCRIS mutagenicity studies

Structure (SMILES) | mutagenic call (Test System: AMES SALMONELLA TYPHIMURIUM, Strain/Indicator: TA98, Metabolic Activation: NONE, Method: PREINCUBATION) | mutagenic call (Test System: AMES SALMONELLA TYPHIMURIUM, Strain/Indicator: TA98, Metabolic Activation: RAT LIVER S-9, PHENOBARBITAL AND BETA-NAPHTHOFLAVONE (30%), Method: PREINCUBATION) | mutagenic call (Test System: AMES SALMONELLA TYPHIMURIUM, Strain/Indicator: TA98, Metabolic Activation: RAT LIVER S-9, PHENOBARBITAL AND BETA-NAPHTHOFLAVONE, Method: PREINCUBATION) | mutagenic call (Test System: AMES SALMONELLA TYPHIMURIUM, Strain/Indicator: TA100, Metabolic Activation: NONE, Method: PREINCUBATION) | mutagenic call (Test System: AMES SALMONELLA TYPHIMURIUM, Strain/Indicator: TA100, Metabolic Activation: RAT LIVER S-9, PHENOBARBITAL AND BETA-NAPHTHOFLAVONE (30%), Method: PREINCUBATION) | mutagenic call (Test System: AMES SALMONELLA TYPHIMURIUM, Strain/Indicator: TA100, Metabolic Activation: RAT LIVER S-9, PHENOBARBITAL AND BETA-NAPHTHOFLAVONE, Method: PREINCUBATION) | mutagenic call (Test System: AMES SALMONELLA TYPHIMURIUM, Strain/Indicator: TA1535, Metabolic Activation: NONE, Method: PREINCUBATION) | mutagenic call (Test System: AMES SALMONELLA TYPHIMURIUM, Strain/Indicator: TA1535, Metabolic Activation: RAT LIVER S-9, PHENOBARBITAL AND BETA-NAPHTHOFLAVONE (30%), Method: PREINCUBATION) | mutagenic call (Test System: AMES SALMONELLA TYPHIMURIUM, Strain/Indicator: TA1535, Metabolic Activation: RAT LIVER S-9, PHENOBARBITAL AND BETA-NAPHTHOFLAVONE, Method: PREINCUBATION) | mutagenic call (Test System: AMES SALMONELLA TYPHIMURIUM, Strain/Indicator: TA1537, Metabolic Activation: NONE, Method: PREINCUBATION) | mutagenic call (Test System: AMES SALMONELLA TYPHIMURIUM, Strain/Indicator: TA1537, Metabolic Activation: RAT LIVER S-9, PHENOBARBITAL AND BETA-NAPHTHOFLAVONE (30%), Method: PREINCUBATION) | mutagenic call (Test System: AMES SALMONELLA TYPHIMURIUM, Strain/Indicator: TA1537, Metabolic Activation: RAT LIVER S-9, PHENOBARBITAL AND BETA-NAPHTHOFLAVONE, Method: PREINCUBATION) | mutagenic call (Test System: E.COLI, Strain/Indicator: WP2UVRA, Metabolic Activation: NONE, Method: PREINCUBATION) | mutagenic call (Test System: E.COLI, Strain/Indicator: WP2UVRA, Metabolic Activation: RAT LIVER S-9, PHENOBARBITAL AND BETA-NAPHTHOFLAVONE (30%), Method: PREINCUBATION) | mutagenic call (Test System: E.COLI, Strain/Indicator: WP2UVRA, Metabolic Activation: RAT LIVER S-9, PHENOBARBITAL AND BETA-NAPHTHOFLAVONE, Method: PREINCUBATION) | mutagenic call (Test System: AMES SALMONELLA TYPHIMURIUM, Strain/Indicator: TA98, Metabolic Activation: RAT, LIVER, S-9, AROCLOR 1254 (2 OR 4%), Method: STANDARD PLATE) | mutagenic call (Test System: AMES SALMONELLA TYPHIMURIUM, Strain/Indicator: TA100, Metabolic Activation: RAT, LIVER, S-9, AROCLOR 1254 (2%), Method: STANDARD PLATE) | mutagenic call (Test System: AMES SALMONELLA TYPHIMURIUM, Strain/Indicator: TA1535, Metabolic Activation: RAT, LIVER, S-9, AROCLOR 1254 (2%), Method: STANDARD PLATE) | mutagenic call (Test System: AMES SALMONELLA TYPHIMURIUM, Strain/Indicator: TA1537, Metabolic Activation: RAT, LIVER, S-9, AROCLOR 1254 (2%), Method: STANDARD PLATE)
Nc1ccc(C=O)cc1 | inactive; negative | inactive; negative | inactive; negative | inactive; negative | inactive; negative | inactive; negative | inactive; negative | inactive; negative | inactive; negative | inactive; negative | inactive; negative | inactive; negative | inactive; negative | inactive; negative | inactive; negative | – | – | – | –
Nc1cccc2c1ccc1ccccc12 | – | – | – | – | – | – | – | – | – | – | – | – | – | – | – | active; positive | active; positive | inactive; negative | active; positive
